In patent US12097181B2, “Swine maternal neonatal pheromone” (Texas Tech University System, priority 2019, dated 2024):
Entries after “also recorded” stand apart in the source; their conditions may differ.

Test system: piglets
Assay: Preference test: piglet preference for feeders sprayed with maternal semiochemicals
Assay type: in vivo, Swine (Sus scrofa)
Conditions: for overall preference index (PI) / percentage of time piglets spent interacting with the feeder: feeder sprayed with 5 mL testing solution (4.5 mg skatole and/or 9.0 mg myristic acid) vs mineral oil control feeder, litters 7±2 d of age, two 5-h test days; for piglet preference or aversion for sprayed feeder compared to control: feeder sprayed with testing solution vs mineral oil control
Method: Piglets used in this study were from a terminal cross between PIC Camborough genetic line sows and a terminal sire. Litters were housed in conventional slatted floor farrowing crates (1.52 m×2.13 m). All piglets were ear notched, teeth clipped, and injected with iron at 3 days of age. During this day, all males within a litter were also castrated by farm personnel. Prior to the study, piglets had no creep feeder. The preference test was performed in their home farrowing crate. Preference tests were conducted to determine piglet preference for skatole and myristic acid. First, nine litters (105 piglets) were used to evaluate piglet preference toward a solution containing both, skatole and myristic acid (N=9). Once piglet preference for a solution containing both molecules was determined, 8 litters (79 piglets) were used to evaluate piglet preference for skatole (N=8) and another 8 litters (80 piglets) to evaluate piglet preference for myristic acid (N=8) individually. Each litter was tested only once to ensure that piglets were tested at the same age and that they were not previously exposed to a feeder or a semiochemical.
At 7±2 days of age, two three-hole galvanized steel baby pig feeders were placed at each front corner of the farrowing crate for five hours for two consecutive days (FIG. 6). […] The sow was present during each five hours trial. Each feeder contained 100 g of pig pre-starter (MoorMan's ShowTec Prestarter, ADM, Quincy, IL) and was sprayed with either 5 mL of mineral oil (control) or 5 mL of the testing solution. The solution was sprayed on the feeder and not the feed. The 5 mL of the testing solution contained 4.5 mg of skatole and/or 9.0 mg of myristic acid. This concentration was selected based on the estimated concentration of each analyte in 150 g of lactating sow faeces based on GC/MS analysis. On the second testing day, feeder locations were switched to correct for side biases. A single observer following a 30 second scan sampling method, observed the behavior of each piglet in the litter at 30 second intervals to determine the percentage of time piglets spent interacting with each feeder during the five-hour period each testing day. A total of 600 observations were recorded per litter in each testing day. The percentage of time piglets within a litter spent interacting with each feeder was calculated by dividing the number of time piglets were observed interacting with a feeder over the total number of observations. Interacting with the feeder was defined as when piglets were sniffing, touching or licking the area of the feeder sprayed with the solution or eating or rooting the feed. A preference index was calculated for each feeder by dividing the amount of time piglets were observed interacting with a feeder by the sum of the number of times piglets were observed interacting with both feeders.
For each litter (experimental unit), an overall feed intake, preference index, and percentage of time interacted with each feeder was obtained from both testing days. Difference in overall feed intake, preference index, and percentage of time piglets spent interacting with the control and the feeder sprayed with the testing solutions were analyzed using the Wilcoxon-singed ranked test. […] All statistical analyses were performed using SAS 9.4. (SAS Inst., Inc., Cary, NC). A statistically significant difference was based on a P value≤0.05.

## CCCCCCCCCCCCCC(=O)O [Myristic acid, Tetradecanoic acid]
  overall preference index (PI): 0.47
  percentage of time piglets spent interacting with the feeder: 0.48%
  piglet preference or aversion for sprayed feeder compared to control: No preference or aversion; also recorded: No preference

## Cc1c[nH]c2ccccc12 [Skatole, 3-methylindole]
  overall preference index (PI): 0.51
  percentage of time piglets spent interacting with the feeder: 0.54%
  piglet preference or aversion for sprayed feeder compared to control: No preference or aversion; also recorded: No preference
